Measured values taken from ChEMBL document CHEMBL1909046, “DrugMatrix in vitro pharmacology data”.

Legend:
[1] = molecular target: Beta-2 adrenergic receptor (Homo sapiens, UniProt P07550); assay: DRUGMATRIX: Adrenergic beta2 radioligand binding (ligand: [3H] CGP-12177); assay type: cell membranes, Membrane; conditions: cho; Not Active = under 50% inhibition at 10 µM
[2] = DRUGMATRIX: ATPase, Na+/K+ enzyme inhibition (substrate: ATP); assay type: tissue-based, Sus scrofa, Heart; conditions: Not Active = under 50% inhibition at 10 µM
[3] = molecular target: T1, B2 bradykinin receptor (Homo sapiens, UniProt P30411); assay type: cell membranes, Membrane; conditions: chem-1; also: in other assays of this panel Not Active means under 50% inhibition at 10 µM
T1 sequence (P30411 whole entry): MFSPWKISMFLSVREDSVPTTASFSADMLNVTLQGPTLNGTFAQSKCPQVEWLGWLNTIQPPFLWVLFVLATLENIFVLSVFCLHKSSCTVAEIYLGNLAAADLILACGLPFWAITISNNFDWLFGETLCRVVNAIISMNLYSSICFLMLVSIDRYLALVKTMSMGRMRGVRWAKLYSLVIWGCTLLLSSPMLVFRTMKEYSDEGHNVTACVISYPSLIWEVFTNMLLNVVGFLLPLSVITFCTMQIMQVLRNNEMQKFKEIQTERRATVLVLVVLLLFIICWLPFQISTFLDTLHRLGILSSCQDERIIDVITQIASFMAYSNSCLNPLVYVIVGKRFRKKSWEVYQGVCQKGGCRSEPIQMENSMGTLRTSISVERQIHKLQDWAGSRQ

[4] = molecular target: T2, Endothelin-1 receptor (Homo sapiens, UniProt P25101); assay type: cell membranes, CHO-K1, Membrane; also: in other assays of this panel Not Active means under 50% inhibition at 10 µM
T2 sequence (P25101 whole entry): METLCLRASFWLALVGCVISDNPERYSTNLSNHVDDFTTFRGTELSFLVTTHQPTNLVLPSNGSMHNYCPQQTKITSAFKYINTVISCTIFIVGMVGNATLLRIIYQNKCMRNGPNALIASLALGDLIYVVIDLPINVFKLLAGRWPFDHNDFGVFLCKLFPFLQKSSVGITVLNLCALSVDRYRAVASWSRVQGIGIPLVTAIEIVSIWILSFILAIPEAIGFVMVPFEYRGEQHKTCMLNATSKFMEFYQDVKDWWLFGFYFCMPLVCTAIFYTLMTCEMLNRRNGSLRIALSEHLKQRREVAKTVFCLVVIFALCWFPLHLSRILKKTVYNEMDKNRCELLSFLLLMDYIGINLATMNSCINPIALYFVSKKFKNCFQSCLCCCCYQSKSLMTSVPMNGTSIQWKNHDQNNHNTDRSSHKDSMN

[5] = DRUGMATRIX: Glutamate, AMPA radioligand binding (ligand: [3H] AMPA); assay type: cell membranes, Rattus norvegicus, Wistar, Cerebral cortex, Membrane; conditions: Not Active = under 50% inhibition at 10 µM
[6] = molecular target: cGMP-specific 3',5'-cyclic phosphodiesterase (Homo sapiens, UniProt O76074); assay: DRUGMATRIX: Phosphodiesterase PDE5 enzyme inhibition (substrate: [3H]cGMP + cGMP); assay type: tissue-based; conditions: platelet; Not Active = under 50% inhibition at 10 µM
[7] = molecular target: T3, Cathepsin G (Homo sapiens, UniProt P08311); assay type: tissue-based; conditions: neutrophil;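 also: inhibition of Cathepsin G enzyme activity, tested on an AMC-conjugated peptide substrate; in other assays of this panel Not Active means under 50% inhibition at 10 µM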
T3 sequence (P08311 whole entry): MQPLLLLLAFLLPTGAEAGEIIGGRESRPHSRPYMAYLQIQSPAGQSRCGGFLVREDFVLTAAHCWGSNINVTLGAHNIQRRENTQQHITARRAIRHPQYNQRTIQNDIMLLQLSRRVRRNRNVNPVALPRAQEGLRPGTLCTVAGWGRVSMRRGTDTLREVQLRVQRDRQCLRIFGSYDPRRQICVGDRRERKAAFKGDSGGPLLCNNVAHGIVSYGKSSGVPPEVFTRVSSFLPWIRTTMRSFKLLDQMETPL

[8] = molecular target: Voltage-gated inwardly rectifying potassium channel KCNH2 (Homo sapiens, UniProt Q12809); conditions: hek293; also: in other assays of this panel Not Active means under 50% inhibition at 10 µM
Chain of Voltage-gated inwardly rectifying potassium channel KCNH2 (Q12809 whole entry): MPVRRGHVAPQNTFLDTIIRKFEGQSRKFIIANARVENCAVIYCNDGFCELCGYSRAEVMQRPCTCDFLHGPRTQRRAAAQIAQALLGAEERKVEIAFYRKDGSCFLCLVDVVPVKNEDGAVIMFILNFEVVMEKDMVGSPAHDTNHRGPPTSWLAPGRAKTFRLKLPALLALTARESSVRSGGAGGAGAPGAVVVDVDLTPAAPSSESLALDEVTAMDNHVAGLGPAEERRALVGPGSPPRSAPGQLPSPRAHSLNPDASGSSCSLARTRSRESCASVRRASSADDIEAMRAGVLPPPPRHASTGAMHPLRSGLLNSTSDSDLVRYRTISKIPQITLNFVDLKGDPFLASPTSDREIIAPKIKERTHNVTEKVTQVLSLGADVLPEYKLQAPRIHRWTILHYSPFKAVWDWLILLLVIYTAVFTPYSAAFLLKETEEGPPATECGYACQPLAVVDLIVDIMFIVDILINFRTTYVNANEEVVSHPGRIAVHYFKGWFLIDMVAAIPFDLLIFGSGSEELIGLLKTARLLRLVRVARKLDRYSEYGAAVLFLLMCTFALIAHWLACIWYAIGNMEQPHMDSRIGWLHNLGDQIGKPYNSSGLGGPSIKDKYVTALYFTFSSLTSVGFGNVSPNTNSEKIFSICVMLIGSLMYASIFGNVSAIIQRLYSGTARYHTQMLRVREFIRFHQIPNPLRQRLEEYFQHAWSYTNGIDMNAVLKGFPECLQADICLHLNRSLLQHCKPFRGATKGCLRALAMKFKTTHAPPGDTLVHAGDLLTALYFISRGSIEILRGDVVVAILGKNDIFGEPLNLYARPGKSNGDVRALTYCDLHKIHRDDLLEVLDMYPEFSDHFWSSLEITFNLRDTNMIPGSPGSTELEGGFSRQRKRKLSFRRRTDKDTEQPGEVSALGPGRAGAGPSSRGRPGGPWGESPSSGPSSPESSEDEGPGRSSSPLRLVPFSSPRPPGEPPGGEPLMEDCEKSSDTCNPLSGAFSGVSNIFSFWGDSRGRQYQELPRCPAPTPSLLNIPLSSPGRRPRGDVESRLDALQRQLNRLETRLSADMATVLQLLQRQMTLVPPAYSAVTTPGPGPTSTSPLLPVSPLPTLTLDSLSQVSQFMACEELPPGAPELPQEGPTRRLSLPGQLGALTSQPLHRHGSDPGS

Chain of Beta-2 adrenergic receptor (P07550 whole entry): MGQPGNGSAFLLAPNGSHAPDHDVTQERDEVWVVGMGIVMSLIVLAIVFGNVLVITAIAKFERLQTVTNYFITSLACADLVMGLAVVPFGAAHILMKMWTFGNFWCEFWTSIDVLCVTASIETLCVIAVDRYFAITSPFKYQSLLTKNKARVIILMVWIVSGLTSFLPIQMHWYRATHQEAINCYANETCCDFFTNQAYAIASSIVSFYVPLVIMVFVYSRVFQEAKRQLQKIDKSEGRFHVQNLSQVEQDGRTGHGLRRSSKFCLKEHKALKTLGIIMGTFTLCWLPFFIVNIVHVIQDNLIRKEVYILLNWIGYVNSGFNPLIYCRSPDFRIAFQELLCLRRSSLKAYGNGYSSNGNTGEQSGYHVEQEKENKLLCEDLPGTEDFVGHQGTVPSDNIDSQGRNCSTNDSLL

Structure (SMILES) | IC50 [1] | IC50 [2] | Ki [2] | IC50 [3] | IC50 ([4]; cho-k1) | IC50 [5] | Ki [5] | IC50 [6] | IC50 [7] | IC50 [8] | Ki [8] | IC50 ([4]; read-out: IC50) [µM] | Ki ([4]; read-out: Ki) [µM]
CC(C)(C)NC(=O)[C@@H]1C[C@@H]2CCCC[C@@H]2CN1C[C@@H](O)[C@H](Cc1ccccc1)NC(=O)[C@H](CC(N)=O)NC(=O)c1ccc2ccccc2n1 | Not Active | Not Active | Not Active | Not Active | Not Active | Not Active | Not Active | Not Active | Not Active | Not Active | Not Active | – | –
CC(=O)[C@@]1(O)CC[C@H]2[C@@H]3C[C@H](C)C4=CC(=O)CC[C@]4(C)[C@H]3CC[C@@]21C | Not Active | Not Active | Not Active | Not Active | Not Active | Not Active | Not Active | Not Active | Not Active | Not Active | Not Active | – | –
N[C@@H](Cc1ccc(N(CCCl)CCCl)cc1)C(=O)O | Not Active | Not Active | Not Active | Not Active | Not Active | Not Active | Not Active | Not Active | Not Active | Not Active | Not Active | – | –
CCCCc1oc2ccccc2c1C(=O)c1cc(I)c(OCCN(CC)CC)c(I)c1 [AMIODARONE] | Not Active | – | – | – | – | – | – | Not Active | Not Active | – | – | 26.3 | 16.2
OCCN(CCO)c1nc(N2CCCCC2)c2nc(N(CCO)CCO)nc(N3CCCCC3)c2n1 [DIPYRIDAMOLE] | Not Active | Not Active | Not Active | Not Active | Not Active | Not Active | Not Active | – | Not Active | Not Active | Not Active | – | –
Cc1oncc1C(=O)Nc1ccc(C(F)(F)F)cc1 [LEFLUNOMIDE] | Not Active | Not Active | Not Active | Not Active | Not Active | Not Active | Not Active | Not Active | Not Active | Not Active | Not Active | – | –
c1ccc([C@H]2CN3CCSC3=N2)cc1 [LEVAMISOLE] | Not Active | Not Active | Not Active | Not Active | Not Active | Not Active | Not Active | Not Active | Not Active | Not Active | Not Active | – | –
N[C@@H](Cc1ccc(O)c(O)c1)C(=O)O [LEVODOPA] | Not Active | Not Active | Not Active | Not Active | Not Active | Not Active | Not Active | Not Active | Not Active | Not Active | Not Active | – | –
N[C@@H](Cc1cc(I)c(Oc2ccc(O)c(I)c2)c(I)c1)C(=O)O [LIOTHYRONINE] | Not Active | – | – | Not Active | Not Active | – | – | Not Active | Not Active | Not Active | Not Active | – | –
O=NN(CCCl)C(=O)NC1CCCCC1 [LOMUSTINE] | Not Active | Not Active | Not Active | Not Active | Not Active | Not Active | Not Active | Not Active | Not Active | Not Active | Not Active | – | –
CCOC(=O)N1CCC(=C2c3ccc(Cl)cc3CCc3cccnc32)CC1 [LORATADINE] | Not Active | Not Active | Not Active | Not Active | Not Active | Not Active | Not Active | Not Active | Not Active | – | – | – | –
Cn1ccnc1S [METHIMAZOLE] | Not Active | Not Active | Not Active | Not Active | Not Active | Not Active | Not Active | Not Active | Not Active | Not Active | Not Active | – | –
CC[C@@H](CO)NC(=O)[C@@H]1C=C2c3cccc4[nH]cc(c34)C[C@H]2N(C)C1 [METHYLERGONOVINE] | Not Active | Not Active | Not Active | Not Active | Not Active | Not Active | Not Active | Not Active | Not Active | Not Active | Not Active | – | –
COc1nc(C)nc(Cl)c1NC1=NCCN1 [MOXONIDINE] | Not Active | Not Active | Not Active | Not Active | Not Active | Not Active | Not Active | Not Active | Not Active | Not Active | Not Active | – | –
COc1c(C)c2c(c(O)c1C/C=C(\C)CCC(=O)O)C(=O)OC2 [MYCOPHENOLIC ACID] | Not Active | Not Active | Not Active | Not Active | Not Active | Not Active | Not Active | Not Active | Not Active | Not Active | Not Active | – | –
O=c1ncn2nc(Sc3ccc(F)cc3F)ccc2c1-c1c(Cl)cccc1Cl [NEFLAMAPIMOD] | Not Active | Not Active | Not Active | Not Active | Not Active | Not Active | Not Active | Not Active | Not Active | Not Active | Not Active | – | –
CN1CCN(CCCN2c3ccccc3Sc3ccc(Cl)cc32)CC1 [PROCHLORPERAZINE] | Not Active | – | – | Not Active | Not Active | – | – | Not Active | Not Active | – | – | – | –
Nc1nc2ccc(OC(F)(F)F)cc2s1 [RILUZOLE] | Not Active | Not Active | Not Active | Not Active | Not Active | Not Active | Not Active | Not Active | Not Active | – | – | – | –
Cc1nc2n(c(=O)c1CCN1CCC(c3noc4cc(F)ccc34)CC1)CCCC2 [RISPERIDONE] | Not Active | – | – | Not Active | Not Active | – | – | Not Active | Not Active | – | – | – | –
C[C@@H]1CN(c2c(F)c(N)c3c(=O)c(C(=O)O)cn(C4CC4)c3c2F)C[C@H](C)N1 [SPARFLOXACIN] | Not Active | Not Active | Not Active | Not Active | Not Active | Not Active | Not Active | Not Active | Not Active | – | – | – | –
Cc1noc(NS(=O)(=O)c2ccc(N)cc2)c1C [SULFISOXAZOLE] | Not Active | Not Active | Not Active | Not Active | – | Not Active | Not Active | Not Active | Not Active | Not Active | Not Active | – | –
CC/C(=C(\c1ccccc1)c1ccc(OCCN(C)C)cc1)c1ccccc1 [TAMOXIFEN] | Not Active | – | – | – | Not Active | – | – | Not Active | Not Active | – | – | – | –
Nc1nc2nc[nH]c2c(=S)[nH]1 [THIOGUANINE] | Not Active | Not Active | Not Active | Not Active | Not Active | Not Active | Not Active | Not Active | Not Active | – | – | – | –
CCCOc1ccccc1-c1nc2nn[nH]c2c(=O)[nH]1 [ZAPRINAST] | Not Active | Not Active | Not Active | Not Active | Not Active | Not Active | Not Active | – | Not Active | Not Active | Not Active | – | –
